Results reported in patent US11046694B2, “Compounds and methods for treating bacterial infections” (Entasis Therapeutics, Inc., priority 2018, dated 2021).
≈ marks a conversion by molar mass, not a printed value. Structures can show the parent of a compound that is named as a salt.

Legend:
[1] = target: P. aeruginosa PBP3 (Pseudomonas aeruginosa, UniProt G3XD46); format: biochemical; conditions: P. aeruginosa PBP3 60 nM, BOCILLIN FL 30 nM, pH 7.0
[2] = tested on: K. pneumoniae (ATCC700603); experiment: MIC against K. pneumoniae; conditions: Klebsiella pneumoniae, ATCC700603, read-out: K. pneumoniae MIC (ATCC700603)
[3] = target: P. aeruginosa PBP1a (Pseudomonas aeruginosa, UniProt Q07806); format: biochemical; conditions: P. aeruginosa PBP1a 60 nM, BOCILLIN FL 30 nM, pH 7.0
[4] = tested on: A. baumannii (ARC3495); experiment: MIC against A. baumannii; conditions: Acinetobacter baumannii, read-out: A. baumannii MIC (ARC3495) (mg/L)
[5] = tested on: E. coli (ATCC25922); experiment: MIC against E. coli; conditions: Escherichia coli, ATCC25922, read-out: E. coli MIC (ATCC25922) (mg/L)
[6] = tested on: P. aeruginosa WT (PAO1); experiment: MIC, CLSI broth microdilution, P. aeruginosa; format: cell-based; conditions: Pseudomonas aeruginosa, PAO1; CLSI broth microdilution; read-out: P. aeruginosa WT (PAO1) MIC

Chain of P. aeruginosa PBP1a (Q07806 whole entry): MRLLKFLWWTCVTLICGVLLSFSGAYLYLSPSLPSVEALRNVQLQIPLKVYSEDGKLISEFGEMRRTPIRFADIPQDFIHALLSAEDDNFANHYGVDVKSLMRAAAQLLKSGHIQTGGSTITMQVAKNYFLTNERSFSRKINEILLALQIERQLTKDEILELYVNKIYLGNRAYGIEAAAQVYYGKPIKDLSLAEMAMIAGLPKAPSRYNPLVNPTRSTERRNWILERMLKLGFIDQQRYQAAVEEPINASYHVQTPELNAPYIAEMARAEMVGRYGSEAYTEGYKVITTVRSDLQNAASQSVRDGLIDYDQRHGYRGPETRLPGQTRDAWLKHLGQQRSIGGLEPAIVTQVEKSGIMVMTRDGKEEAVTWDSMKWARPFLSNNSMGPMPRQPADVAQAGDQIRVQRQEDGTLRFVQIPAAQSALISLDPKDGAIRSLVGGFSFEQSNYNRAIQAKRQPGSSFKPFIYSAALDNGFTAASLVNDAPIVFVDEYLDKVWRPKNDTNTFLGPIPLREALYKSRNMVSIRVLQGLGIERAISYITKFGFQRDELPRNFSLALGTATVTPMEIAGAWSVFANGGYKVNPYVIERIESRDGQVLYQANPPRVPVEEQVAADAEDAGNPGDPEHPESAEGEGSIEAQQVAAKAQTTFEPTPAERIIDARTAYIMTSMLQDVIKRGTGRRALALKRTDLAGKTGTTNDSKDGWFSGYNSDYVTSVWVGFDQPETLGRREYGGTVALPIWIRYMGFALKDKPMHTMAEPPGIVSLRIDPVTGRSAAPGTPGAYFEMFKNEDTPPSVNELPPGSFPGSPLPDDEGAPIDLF
Chain of P. aeruginosa PBP3 (G3XD46 whole entry): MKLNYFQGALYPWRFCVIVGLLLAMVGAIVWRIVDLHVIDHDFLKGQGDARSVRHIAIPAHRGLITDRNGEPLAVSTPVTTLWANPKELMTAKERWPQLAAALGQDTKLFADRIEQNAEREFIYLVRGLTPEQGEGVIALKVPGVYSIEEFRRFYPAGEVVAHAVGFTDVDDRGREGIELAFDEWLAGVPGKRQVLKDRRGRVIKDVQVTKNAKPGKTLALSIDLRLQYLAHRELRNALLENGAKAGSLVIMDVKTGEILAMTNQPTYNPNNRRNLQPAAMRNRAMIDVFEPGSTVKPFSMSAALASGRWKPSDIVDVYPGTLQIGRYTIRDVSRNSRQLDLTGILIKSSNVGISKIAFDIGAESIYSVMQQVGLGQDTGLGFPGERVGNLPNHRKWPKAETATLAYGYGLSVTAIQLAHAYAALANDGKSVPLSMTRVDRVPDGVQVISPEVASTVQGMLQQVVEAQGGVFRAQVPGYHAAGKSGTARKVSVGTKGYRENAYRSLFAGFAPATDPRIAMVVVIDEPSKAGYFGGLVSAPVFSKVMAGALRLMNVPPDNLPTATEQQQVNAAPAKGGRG

Row | SMILES | PBP3 acylation rate, k(on) (M^−1 · s^−1) [1] | MIC [2] [µg/mL] | PBP1a acylation rate, k(on) (M^−1 · s^−1) [3] | MIC [4] [mg/L] | MIC [5] [mg/L] | MIC [6] [µg/mL]
1 | CN/C(=N\OC(=O)N(C)C)[C@@H]1c2c(cnn2C)[C@@H]2CN1C(=O)N2OS(=O)(=O)O (racemic) [Example 21] | *** (*** represents a k(on) > 10,000 M^−1 · s^−1) | > 16 | ** (** represents a k(on) of 100 to 10,000 M^−1 · s^−1) | > 16 | < 8 | > 16
2 | CN/C(=N\OCC(=O)O)[C@@H]1c2c(cnn2C)[C@@H]2CN1C(=O)N2OS(=O)(=O)O [Example 62, 2-((((Z)-((4R,8S)-1-methyl-6-oxo-5-(sulfooxy)-4,5,6,8-tetrahydro-1H-4,7-methanopyrazolo[3,4-e][1,3]diazepin-8-yl)(methylamino)methylene)amino)oxy)acetic acid] | *** (*** represents a k(on) > 10,000 M^−1 · s^−1) | 8 to 16 (≈ 19.8 to 39.6 µM) | ** (** represents a k(on) of 100 to 10,000 M^−1 · s^−1) | > 16 | 8 to 16 (≈ 19.8 to 39.6 µM) | < 8
3 | CN/C(=N\OC(C)(C)C(=O)O)[C@@H]1c2c(cnn2C)[C@@H]2CN1C(=O)N2OS(=O)(=O)O [Example 63] | *** (*** represents a k(on) > 10,000 M^−1 · s^−1) | > 16 | ** (** represents a k(on) of 100 to 10,000 M^−1 · s^−1) | > 16 | < 8 | 8 to 16 (≈ 18.5 to 37 µM)
4 | CN1C(=O)C(C)(C)ON=C1[C@@H]1c2c(cnn2C)[C@@H]2CN1C(=O)N2OS(=O)(=O)O [Example 65] | ** (** represents a k(on) of 100 to 10,000 M^−1 · s^−1) | > 16 | ** (** represents a k(on) of 100 to 10,000 M^−1 · s^−1) | > 16 | < 8 | > 16
5 | CN/C(=N\OC(=O)NOC)[C@@H]1c2c(cnn2C)[C@@H]2CN1C(=O)N2OS(=O)(=O)O (racemic) [Example 33] | *** (*** represents a k(on) > 10,000 M^−1 · s^−1) | > 16 | ** (** represents a k(on) of 100 to 10,000 M^−1 · s^−1) | 8 to 16 (≈ 19.1 to 38.2 µM) | 8 to 16 (≈ 19.1 to 38.2 µM) | 8 to 16 (≈ 19.1 to 38.2 µM)
6 | CN/C(=N\OC(=O)NCC(=O)O)[C@@H]1c2c(cnn2C)[C@@H]2CN1C(=O)N2OS(=O)(=O)O (racemic) [Example 22] | *** (*** represents a k(on) > 10,000 M^−1 · s^−1) | 8 to 16 (≈ 17.9 to 35.8 µM) | ** (** represents a k(on) of 100 to 10,000 M^−1 · s^−1) | > 16 | < 8 | 8 to 16 (≈ 17.9 to 35.8 µM)
7 | CN/C(=N\OC(=O)NCCCC[C@H](N)C(=O)OC(C)(C)C)[C@@H]1c2c(cnn2C)[C@@H]2CN1C(=O)N2OS(=O)(=O)O (racemic) [Example 32] | *** (*** represents a k(on) > 10,000 M^−1 · s^−1) | > 16 | ** (** represents a k(on) of 100 to 10,000 M^−1 · s^−1) | > 16 | < 8 | > 16
8 | CN/C(=N\OC(=O)NCCC(=O)O)[C@@H]1c2c(cnn2C)[C@@H]2CN1C(=O)N2OS(=O)(=O)O (racemic) [Example 27] | *** (*** represents a k(on) > 10,000 M^−1 · s^−1) | > 16 | ** (** represents a k(on) of 100 to 10,000 M^−1 · s^−1) | > 16 | < 8 | 8 to 16 (≈ 17.3 to 34.7 µM)
9 | CN/C(=N\OC(=O)NCCCCNC(=O)C(F)(F)F)[C@@H]1c2c(cnn2C)[C@@H]2CN1C(=O)N2OS(=O)(=O)O [Example 45, (4R,8S)-1-methyl-8-((Z)—N-methyl-N′-(((4-(2,2,2-trifluoroacetamido)butyl)carbamoyl)oxy)carbamimidoyl)-6-oxo-4,8-dihydro-1H-4,7-methanopyrazolo[3,4-e][1,3]diazepin-5(6H)-yl hydrogen sulfate] | *** (*** represents a k(on) > 10,000 M^−1 · s^−1) | > 16 | ** (** represents a k(on) of 100 to 10,000 M^−1 · s^−1) | > 16 | < 8 | > 16
10 | CN/C(=N\OC(=O)NC1CCNCC1)[C@@H]1c2c(cnn2C)[C@@H]2CN1C(=O)N2OS(=O)(=O)O (racemic) [Example 29] | *** (*** represents a k(on) > 10,000 M^−1 · s^−1) | > 16 | ** (** represents a k(on) of 100 to 10,000 M^−1 · s^−1) | 8 to 16 (≈ 16.9 to 33.9 µM) | 8 to 16 (≈ 16.9 to 33.9 µM) | < 8
11 | CN/C(=N\OCC(=O)NCCN)[C@@H]1c2c(cnn2C)[C@@H]2CN1C(=O)N2OS(=O)(=O)O (racemic) [Example 58, (4R,8S)-8-((Z)—N′-(2-((2-aminoethyl)amino)-2-oxoethoxy)-N-methylcarbamimidoyl)-1-methyl-6-oxo-4,8-dihydro-1H-4,7-methanopyrazolo[3,4-e][1,3]diazepin-5(6H)-yl hydrogen sulfate] | *** (*** represents a k(on) > 10,000 M^−1 · s^−1) | 8 to 16 | * (* represents a k(on) < 100 M^−1 · s^−1) | 8 to 16 | 8 to 16 | < 8
12 | CN/C(=N\OC(=O)NCC1CCNCC1)[C@@H]1c2c(cnn2C)[C@@H]2CN1C(=O)N2OS(=O)(=O)O (racemic) [Example 28] | *** (*** represents a k(on) > 10,000 M^−1 · s^−1) | > 16 | ** (** represents a k(on) of 100 to 10,000 M^−1 · s^−1) | 8 to 16 (≈ 16.4 to 32.9 µM) | < 8 | < 8
13 | CN/C(=N\OC(=O)NCCNC(N)=O)[C@@H]1c2c(cnn2C)[C@@H]2CN1C(=O)N2OS(=O)(=O)O [Example 42, (4R,8S)-1-methyl-8-((Z)—N-methyl-N′-(((2-ureidoethyl)carbamoyl)oxy)carbamimidoyl)-6-oxo-4,8-dihydro-1H-4,7-methanopyrazolo[3,4-e][1,3]diazepin-5(6H)-yl hydrogen sulfate] | *** (*** represents a k(on) > 10,000 M^−1 · s^−1) | > 16 | ** (** represents a k(on) of 100 to 10,000 M^−1 · s^−1) | 8 to 16 | 8 to 16 | 8 to 16
14 | CN/C(=N\OCC(=O)NCCCC[C@H](N)C(=O)O)[C@@H]1c2c(cnn2C)[C@@H]2CN1C(=O)N2OS(=O)(=O)O (racemic) [Example 60] | *** (*** represents a k(on) > 10,000 M^−1 · s^−1) | > 16 | * (* represents a k(on) < 100 M^−1 · s^−1) | > 16 | < 8 | 8 to 16 (≈ 15 to 30 µM)
15 | CN/C(=N\OS(N)(=O)=O)[C@@H]1c2c(cnn2C)[C@@H]2CN1C(=O)N2OS(=O)(=O)O [Example 46, (4R,8S)-1-methyl-8-((Z)—N-methyl-N′-(sulfamoyloxy)carbamimidoyl)-6-oxo-4,8-dihydro-1H-4,7-methanopyrazolo[3,4-e][1,3]diazepin-5(6H)-yl hydrogen sulfate] | *** (*** represents a k(on) > 10,000 M^−1 · s^−1) | 8 to 16 | ** (** represents a k(on) of 100 to 10,000 M^−1 · s^−1) | > 16 | 8 to 16 | 8 to 16
16 | CN/C(=N\OCC(N)=O)[C@@H]1c2c(cnn2C)[C@@H]2CN1C(=O)N2OS(=O)(=O)O [Example 57, pyridium (4R,8S)-8-((Z)—N′-(2-amino-2-oxoethoxy)-N-methylcarbamimidoyl)-1-methyl-6-oxo-4,8-dihydro-1H-4,7-methanopyrazolo[3,4-e][1,3]diazepin-5(6H)-yl hydrogen sulfate] | *** (*** represents a k(on) > 10,000 M^−1 · s^−1) | 8 to 16 | ** (** represents a k(on) of 100 to 10,000 M^−1 · s^−1) | 8 to 16 | 8 to 16 | < 8
17 | CN/C(=N\OC(=O)NO)[C@@H]1c2c(cnn2C)[C@@H]2CN1C(=O)N2OS(=O)(=O)O (racemic) [Example 17] | *** (*** represents a k(on) > 10,000 M^−1 · s^−1) | 8 to 16 (≈ 19.7 to 39.5 µM) | ** (** represents a k(on) of 100 to 10,000 M^−1 · s^−1) | > 16 | 8 to 16 (≈ 19.7 to 39.5 µM) | 8 to 16 (≈ 19.7 to 39.5 µM)
18 | CN/C(=N\OC(=O)NCCCC[C@H](N)C(=O)O)[C@@H]1c2c(cnn2C)[C@@H]2CN1C(=O)N2OS(=O)(=O)O (racemic) [Example 31] | *** (*** represents a k(on) > 10,000 M^−1 · s^−1) | > 16 | ** (** represents a k(on) of 100 to 10,000 M^−1 · s^−1) | > 16 | < 8 | 8 to 16 (≈ 15.4 to 30.9 µM)
19 | CN/C(=N\OC(=O)NCCC(N)=O)[C@@H]1c2c(cnn2C)[C@@H]2CN1C(=O)N2OS(=O)(=O)O (racemic) [Example 16] | *** (*** represents a k(on) > 10,000 M^−1 · s^−1) | > 16 | ** (** represents a k(on) of 100 to 10,000 M^−1 · s^−1) | > 16 | 8 to 16 (≈ 17.4 to 34.8 µM) | 8 to 16 (≈ 17.4 to 34.8 µM)
